Reference: patent US10071042B2, “External dermatological agent for anti-ageing” (Hayashibara Co., Ltd., priority 2014, dated 2018)

Experiments:
[1] = system: normal human epidermal keratinocytes; experiment: Number of cells, methylene blue (Experiment 6); format: cell-based; settings: for Number of cells (%): control = 100%
Description: The number of proliferated cells was determined with methylene blue and regarded as 100% for use in calculating the variation of cells with any one of the test substances.

filaggrin protein = experiment: Expression of filaggrin protein, Western blot filaggrin/actin (Experiment 3); format: cell-based, human; settings: control = 100%
Description: Then, the expression of filaggrin was induced in such a manner of further culturing the cells for another four days, while replacing the culture medium with an EpiLife medium supplemented with 2 μM, 5 μM, or 10 μM of sodium adenosine N1-oxide 5′-phosphate every three days. […] After four days culture, the resultant cells were washed with Dulbecco's phosphate buffered saline, added with 0.1 mL of an SDS sample buffer (pH 6.8) containing 62.5 mM Tris-HCl, 2% SDS, 10% glycerol, and 50 mM DTT along with a protease inhibitor, and collected with a cell scraper. The collected cells were boiled for 10 min, disrupted ultrasonically, and quantified with “Pierce BCA Protein Assay Kit”, commercialized by ThermoFisher Scientific K. K., Yokohama, Japan. A prescribed amount of the resulting disrupted cells was sampled and subjected to SDS-polyacrylamide gel electrophoresis in an amount of 100 μg/lane, and the resulting gel was transferred to a PVDF membrane. The resulting transferred PVDF membrane was blocked with “Block Ace”, commercialized by DS Pharma Biomedical Co., Ltd., Osaka, Japan, reacted with a 200-fold dilution of “AKH1”, a mouse anti-filaggrin antibody, commercialized by, Santa Cruz Biotechnology Inc., CA, USA, or a 20,000-fold dilution of “MAB1501”, a mouse actin antibody, commercialized by Chemicon International Inc., MA, USA, as a first antibody, and then reacted with a 2,000-fold dilution of “P0447”, an HRP-labeled anti-mouse immunoglobulin, commercialized by Dako Japan, Tokyo, Japan, as a secondary antibody. After the reaction, by using ECL Plus Western Blotting Detection System, commercialized by GE Healthcare Japan, Tokyo, Japan, bands were detected on “Hyperfilm ECL”, a chemiluminescent film commercialized by GE Healthcare Japan, Tokyo, Japan. The detected bands were analyzed and quantified with “Image J”, an image analyzing software. A control system with no addition of any of the test substances was provided and the increasing intensity ratio of a band of filaggrin/actin was regarded as 100%, with which data for the increased percentages of the intensity ratios of bands of filaggrin/actin of the test substances were comparatively evaluated.

For `Nc1c2ncn([C@@H]3O[C@H](COP(=O)([O-])O)[C@@H](O)[C@H]3O)c2nc[n+]1[O-].[Na+]` [Sodium adenosine N1-oxide 5′-phosphate, sodium adenosine N1-oxide 5′-phosphate], the “Number of cells (%)” value ([1]; 10 μM) was 111.4%, the “Number of cells (%)” value ([1]; 20 μM) was 103.6% and the “Number of cells (%)” value ([1]; 50 μM) was 100.6%. For the same compound, the “influence on cell proliferation” value ([1]; 10 to 50 μM) was “No influence on cell proliferation”, the “Relative expression level of filaggrin protein (%)” value (shortened to “Relative expression level … (%)”) (filaggrin protein; 2 μM) was 133% and the “Relative expression level … (%)” value (filaggrin protein; 5 μM) was 206%. For the same compound, the “Relative expression level … (%)” value (filaggrin protein; 10 μM) was 308%.
